Measurements reported in ChEMBL document CHEMBL1201862, “PubChem BioAssay data set” (2004).
Activity calls are given as the source filed them.

Key:
[1] = target: Tyrosine-protein phosphatase non-receptor type 11 (Homo sapiens, UniProt Q06124); assay: SHP2 phosphatase inhibition, dose response, selectivity assay for STEP inhibitor project, biochemical (AID 602367); type: functional; details: read-out: IC50_Mean
[2] = target: Tyrosine-protein phosphatase non-receptor type 5 (Homo sapiens, UniProt P54829); assay: STEP phosphatase inhibitors, confirmation, biochemical, fluorescence intensity, uHTS hits (AID 602372); type: functional; details: read-out: IC50_Mean
[3] = target: Dual specificity protein phosphatase 3 (Homo sapiens, UniProt P51452); assay: VHR phosphatase inhibition, dose response, selectivity assay for STEP inhibitor project, biochemical (AID 602374); type: functional; details: read-out: IC50_Mean
[4] = inhibitors of intracellular T. cruzi replication, confirmation, NIH3T3 host cells, beta-gal luminescence (AID 2044); type: functional, cell-based;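 also: intracellular parasites grown in NIH/3T3 mouse fibroblasts as host cells; luminescent beta-galactosidase reporter signal from transgenic T. cruzi replicating inside host cells; inhibitors lower the luminescence signal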
Nonstructural protein 1 = Nonstructural protein 1 (Influenza A virus, UniProt Q194T2); type: functional, Influenza A virus (A/California/07/2009(H1N1))
INS1 = assay: beta cell apoptosis inhibitors, cytokine rescue, dose response, luminescence, retest (AID 449756); type: functional, cell-based; details: Rattus norvegicus;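 also: cell death triggered by IL-1 beta plus TNF-alpha plus IFN-gamma mixture; protective hits raise ATP signal compared with cytokine alone wells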
HEK293 [5] = assay: inhibitors of LMP1-driven NF-kB reporter, dose response, cell-based, HEK293, luciferase, cherry-pick (AID 588343); type: functional; details: Homo sapiens
[6] = AlphaScreen signal interference compounds, dose response, artefact control for ARNT-TACC3 interaction inhibitor project, biochemical, luminescence, cherry-pick (AID 651705); type: functional;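 also: AlphaScreen bead proximity signal that flags compounds interfering with the detection technology; potency reflects signal decrease which marks the compound as an assay artifact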
[7] = cytotoxicity toward NIH3T3 fibroblasts, dose response, counter-screen, cell-based, ATP luminescence, mouse fibroblasts (AID 2010); type: functional;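 also: cells exposed to compound for about 90 hours before reading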
[8] = target: Photoreceptor-specific nuclear receptor (Homo sapiens, UniProt Q9Y5X4); type: functional, cell-based;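 also: CHO-S cells with Gal4-NCOR and VP16-NR2E3 two-hybrid luciferase reporter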
[9] = target: Adenosylmethionine-8-amino-7-oxononanoate aminotransferase (Mycobacterium tuberculosis, UniProt P9WQ81); assay: Mycobacterium tuberculosis BioA enzyme inhibitor Measured in Biochemical System Using Plate Reader - 2163-02_Inhibitor_Dose_CherryPick_Activity.; type: functional, Mycobacterium tuberculosis UT205
HEK293 [10] = assay: optical interference in Abeta FP readout, dose response, artefact control for IDE activator project, biochemical, fluorescence polarization (AID 588442); type: functional, cell-based; details: Homo sapiens
Insulin-degrading enzyme [11] = target: T1, Insulin-degrading enzyme (Homo sapiens, UniProt P14735); assay: activators of recombinant IDE enzyme, dose response, counter-screen for IDE activator project, biochemical, fluorescence polarization (AID 588681)
T1 sequence (P14735 whole entry): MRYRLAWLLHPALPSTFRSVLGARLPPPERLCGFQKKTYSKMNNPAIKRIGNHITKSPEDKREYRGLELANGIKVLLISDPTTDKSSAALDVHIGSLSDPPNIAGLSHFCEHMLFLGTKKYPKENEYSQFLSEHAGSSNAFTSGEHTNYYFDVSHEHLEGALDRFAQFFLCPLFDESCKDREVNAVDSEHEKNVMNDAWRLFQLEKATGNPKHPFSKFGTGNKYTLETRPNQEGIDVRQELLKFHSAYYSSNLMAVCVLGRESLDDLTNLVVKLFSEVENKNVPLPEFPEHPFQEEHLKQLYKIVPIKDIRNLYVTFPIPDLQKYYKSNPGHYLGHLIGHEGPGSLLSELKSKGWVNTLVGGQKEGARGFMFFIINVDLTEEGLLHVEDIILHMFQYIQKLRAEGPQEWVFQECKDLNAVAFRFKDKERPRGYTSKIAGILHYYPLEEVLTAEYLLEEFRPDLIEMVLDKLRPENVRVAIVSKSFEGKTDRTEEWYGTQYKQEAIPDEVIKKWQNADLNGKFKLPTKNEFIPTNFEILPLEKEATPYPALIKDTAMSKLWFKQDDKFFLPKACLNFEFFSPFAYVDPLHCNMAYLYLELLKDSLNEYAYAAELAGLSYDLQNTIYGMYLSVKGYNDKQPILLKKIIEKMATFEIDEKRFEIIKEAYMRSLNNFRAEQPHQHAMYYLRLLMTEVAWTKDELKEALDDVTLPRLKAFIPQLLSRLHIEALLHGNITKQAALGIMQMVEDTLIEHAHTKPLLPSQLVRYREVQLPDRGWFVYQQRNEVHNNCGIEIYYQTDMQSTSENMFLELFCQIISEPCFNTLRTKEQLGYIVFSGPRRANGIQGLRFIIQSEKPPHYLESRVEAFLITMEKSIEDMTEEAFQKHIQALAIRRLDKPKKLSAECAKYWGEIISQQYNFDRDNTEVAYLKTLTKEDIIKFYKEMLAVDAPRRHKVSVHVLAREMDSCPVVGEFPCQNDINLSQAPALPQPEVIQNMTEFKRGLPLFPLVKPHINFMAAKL

Insulin-degrading enzyme [12] = target: T1, Insulin-degrading enzyme; assay: activators of endogenous IDE in HEK cells, dose response, cell-based, fluorescence polarization (AID 588439); type: functional
HEK293 [13] = assay: HEK cell cytotoxicity by LDH release, dose response, cytotoxicity control for IDE activator project, fluorescence, HEK cells (AID 588440); type: functional, cell-based; details: Homo sapiens;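 also: cytotoxicity by LDH release measuring loss of membrane integrity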
[14] = target: Beta-2 adrenergic receptor (Homo sapiens, UniProt P07550); assay: beta2AR agonists driving receptor internalization, dose response, cell-based, FAP fluorogen, flow cytometry, cherry pick 1 (AID 588763); type: functional
[15] = target: T2, Nuclear receptor subfamily 0 group B member 1 (Homo sapiens, UniProt P51843); assay: Luminescence-based cell-based high throughput dose response assay for inhibitors of the orphan nuclear receptor subfamily 0, group B, member 1 (DAX1; NR0B1). [Related pubchem assays (depositor defined):AID504766, AID504790]; type: functional
T2 sequence (P51843 whole entry): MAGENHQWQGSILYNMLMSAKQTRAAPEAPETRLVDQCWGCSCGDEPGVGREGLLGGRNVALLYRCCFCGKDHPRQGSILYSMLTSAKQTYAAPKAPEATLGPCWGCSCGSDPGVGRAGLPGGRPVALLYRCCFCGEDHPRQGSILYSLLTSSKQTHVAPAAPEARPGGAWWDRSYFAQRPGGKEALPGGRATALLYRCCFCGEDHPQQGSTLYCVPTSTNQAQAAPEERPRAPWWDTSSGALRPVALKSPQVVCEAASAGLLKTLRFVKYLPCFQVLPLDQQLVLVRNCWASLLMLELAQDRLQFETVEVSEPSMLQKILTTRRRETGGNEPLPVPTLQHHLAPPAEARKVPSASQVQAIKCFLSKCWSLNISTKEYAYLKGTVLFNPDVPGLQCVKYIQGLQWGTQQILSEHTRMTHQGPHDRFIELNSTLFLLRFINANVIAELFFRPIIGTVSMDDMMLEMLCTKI

HEK293 [16] = assay: cells; type: functional, cell-based; details: Homo sapiens

Sequence of Tyrosine-protein phosphatase non-receptor type 5 (P54829 whole entry): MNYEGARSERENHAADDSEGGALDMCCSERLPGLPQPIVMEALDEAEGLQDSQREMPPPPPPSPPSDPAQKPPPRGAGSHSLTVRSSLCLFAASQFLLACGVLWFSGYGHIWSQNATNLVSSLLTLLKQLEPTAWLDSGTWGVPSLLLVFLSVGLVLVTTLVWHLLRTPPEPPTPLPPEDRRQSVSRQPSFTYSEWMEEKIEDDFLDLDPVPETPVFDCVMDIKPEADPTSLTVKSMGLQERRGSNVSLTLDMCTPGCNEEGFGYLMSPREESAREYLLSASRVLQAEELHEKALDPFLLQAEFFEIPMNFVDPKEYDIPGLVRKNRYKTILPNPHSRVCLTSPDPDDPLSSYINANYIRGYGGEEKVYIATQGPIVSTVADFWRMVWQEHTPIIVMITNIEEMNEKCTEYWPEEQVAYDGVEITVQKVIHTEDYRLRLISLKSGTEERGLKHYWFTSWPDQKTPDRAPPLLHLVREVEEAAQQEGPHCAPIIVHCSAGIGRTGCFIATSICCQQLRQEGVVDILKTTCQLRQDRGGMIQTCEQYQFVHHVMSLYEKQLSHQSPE
Sequence of Photoreceptor-specific nuclear receptor (Q9Y5X4 whole entry, the tested form may be a part): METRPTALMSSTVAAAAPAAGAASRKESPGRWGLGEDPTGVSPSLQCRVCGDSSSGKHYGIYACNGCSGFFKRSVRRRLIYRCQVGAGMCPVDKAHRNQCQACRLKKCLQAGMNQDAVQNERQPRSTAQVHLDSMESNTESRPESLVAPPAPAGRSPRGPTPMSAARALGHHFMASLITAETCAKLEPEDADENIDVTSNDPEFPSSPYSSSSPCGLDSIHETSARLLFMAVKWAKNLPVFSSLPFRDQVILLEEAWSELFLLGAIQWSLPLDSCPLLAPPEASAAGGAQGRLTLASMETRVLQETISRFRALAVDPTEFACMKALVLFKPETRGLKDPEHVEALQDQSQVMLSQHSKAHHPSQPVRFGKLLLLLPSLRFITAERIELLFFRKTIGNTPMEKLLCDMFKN
Sequence of Nonstructural protein 1 (Q194T2 whole entry): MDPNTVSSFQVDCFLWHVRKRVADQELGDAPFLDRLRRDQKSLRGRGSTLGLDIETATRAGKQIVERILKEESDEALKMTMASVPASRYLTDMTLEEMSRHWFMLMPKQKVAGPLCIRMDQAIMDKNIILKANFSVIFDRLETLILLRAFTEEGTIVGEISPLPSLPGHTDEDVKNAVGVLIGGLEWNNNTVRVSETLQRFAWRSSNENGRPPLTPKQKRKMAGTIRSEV
Sequence of Adenosylmethionine-8-amino-7-oxononanoate aminotransferase (P9WQ81 whole entry): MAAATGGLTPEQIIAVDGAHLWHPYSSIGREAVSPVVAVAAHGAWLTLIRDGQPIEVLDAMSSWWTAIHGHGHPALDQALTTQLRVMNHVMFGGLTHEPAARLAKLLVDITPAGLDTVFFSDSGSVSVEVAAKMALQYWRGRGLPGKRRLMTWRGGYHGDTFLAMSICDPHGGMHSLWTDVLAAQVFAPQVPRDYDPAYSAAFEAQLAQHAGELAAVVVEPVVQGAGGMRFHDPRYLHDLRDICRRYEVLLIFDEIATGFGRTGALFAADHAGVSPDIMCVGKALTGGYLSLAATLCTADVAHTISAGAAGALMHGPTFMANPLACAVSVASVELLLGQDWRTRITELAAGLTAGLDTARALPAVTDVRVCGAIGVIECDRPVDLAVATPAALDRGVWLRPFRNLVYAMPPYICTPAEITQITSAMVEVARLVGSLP
Sequence of Beta-2 adrenergic receptor (P07550 whole entry): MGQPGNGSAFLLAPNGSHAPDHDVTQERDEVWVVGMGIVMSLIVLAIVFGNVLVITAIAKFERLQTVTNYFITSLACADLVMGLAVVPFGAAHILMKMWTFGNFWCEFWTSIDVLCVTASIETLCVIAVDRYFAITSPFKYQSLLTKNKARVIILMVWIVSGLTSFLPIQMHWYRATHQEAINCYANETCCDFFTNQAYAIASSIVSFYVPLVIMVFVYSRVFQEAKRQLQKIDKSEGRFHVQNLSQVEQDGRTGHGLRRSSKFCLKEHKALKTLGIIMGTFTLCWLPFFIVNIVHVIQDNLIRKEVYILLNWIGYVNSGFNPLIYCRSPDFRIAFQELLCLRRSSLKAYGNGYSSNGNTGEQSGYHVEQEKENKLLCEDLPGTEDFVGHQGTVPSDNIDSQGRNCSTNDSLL
Sequence of Dual specificity protein phosphatase 3 (P51452 whole entry): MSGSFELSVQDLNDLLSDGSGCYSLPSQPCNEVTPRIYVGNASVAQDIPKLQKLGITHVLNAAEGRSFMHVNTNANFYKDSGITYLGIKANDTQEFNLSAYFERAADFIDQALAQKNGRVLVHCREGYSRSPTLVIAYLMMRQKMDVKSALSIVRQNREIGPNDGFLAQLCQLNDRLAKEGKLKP
Sequence of Tyrosine-protein phosphatase non-receptor type 11 (Q06124 whole entry): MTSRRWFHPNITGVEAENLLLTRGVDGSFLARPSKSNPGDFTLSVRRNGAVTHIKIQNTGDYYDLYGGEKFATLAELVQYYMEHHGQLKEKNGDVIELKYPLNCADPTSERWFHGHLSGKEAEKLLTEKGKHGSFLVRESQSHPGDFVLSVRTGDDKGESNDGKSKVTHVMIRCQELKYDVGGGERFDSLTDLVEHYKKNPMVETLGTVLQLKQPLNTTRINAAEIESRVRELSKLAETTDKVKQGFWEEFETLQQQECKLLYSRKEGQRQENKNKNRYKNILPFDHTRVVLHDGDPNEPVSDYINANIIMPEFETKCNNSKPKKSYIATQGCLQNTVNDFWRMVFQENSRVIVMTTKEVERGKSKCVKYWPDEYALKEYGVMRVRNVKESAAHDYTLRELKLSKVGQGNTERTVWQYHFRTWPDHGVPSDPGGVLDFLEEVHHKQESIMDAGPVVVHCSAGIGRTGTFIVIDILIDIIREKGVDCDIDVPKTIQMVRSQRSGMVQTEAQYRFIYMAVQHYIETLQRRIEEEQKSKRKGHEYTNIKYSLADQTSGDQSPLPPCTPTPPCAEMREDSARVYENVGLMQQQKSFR

Cc1ccc(N=C(S)N(CCN(C)C)Cc2cccs2)c(C)c1
IC50 [1]: 3.37 µM (active)
IC50 [2]: 24.6 µM (inactive)
IC50 [3]: 1.36 µM (active)

CCC(C)Nc1nc(-c2ccccn2)nc2ccccc12 (stereo not given)
EC50 [4]: 1.33 µM (active)
IC50 (Nonstructural protein 1): 25.5 µM (active)
AC50 (INS1): 2.89 µM (active)
AC50 (HEK293 [5]): 4.94 µM (active)
AC50 [6]: 117 µM (active)
EC50 [7]: > 30 µM (not active)
IC50 [8]: 4.14 µM (active)

O=C(C1CC1)N1CC[C@@H]2[C@H]1c1cc(Br)ccc1N[C@@H]2CO
AC50 [9]: 7.01 µM (active)

CC(OC(=O)c1c2c(nc3ccccc13)/C(=C\c1ccc3c(c1)OCO3)CCC2)C(=O)Nc1ccc(S(N)(=O)=O)cc1 (stereo not given)
EC50 (HEK293 [10]): > 54.7 µM (inactive)
EC50 (Insulin-degrading enzyme [11]): > 54.7 µM (inactive)
EC50 (Insulin-degrading enzyme [12]): > 54.7 µM (inactive)
IC50 (HEK293 [13]): > 89.2 µM (inactive)

O=C(NC1(Cc2ccc(O)cc2)CCCCC1)c1ccccc1
EC50 [14]: 7.42 µM (active)

CCCCN(C)C(=O)Cn1nc(Cc2ccncc2)c2ccccc2c1=O
IC50 [15]: > 67.5 µM (inactive)
IC50 (HEK293 [16]): > 67.5 µM (inactive)

Cc1[nH]c2ccccc2c1/C=N/NC(=O)c1cccc(F)c1
IC50 [15]: > 67.5 µM (inactive)
IC50 (HEK293 [16]): > 67.5 µM (inactive)
